Assay results reported in patent publication US20260034091A1, “Compositions and Methods for Treating Metabolic Disorders” (The Regents of the University of California, priority 2022, published 2026).

What was measured:
PPAR signaling pathway = experiment: RNA sequencing, qPCR and western blot of liver samples from CDAHFD late stage NAFLD/NASH mice; format: in vivo, C57BL/6 male mice
Method: (§1) Six-week-old C57BL/6 male mice were fed with a L-Amino Acid Diet With 60 kcal % Fat With 0.1% Methionine and No Added Choline (Research Diets A06071302i) for eight weeks before introduction of either vehicle (control) or 250 mg/kg of TOFA daily via twice daily controlled oral gavage for an additional four weeks (FIG. 3A). Upon study termination at 12 weeks, serum and liver samples were collected. Serum liver damage biomarkers, ALT and AST, were measured by commercially available kits (abcam105134 and abcam 105135, respectively). Hepatic and serum triglyceride levels were measured from a commercially available kit (abcam65336). Liver samples were fixed in 4% paraformaldehyde and embedded in paraffin blocks for sectioning and subsequently stained with hematoxylin and eosin (H&E) or Picrosirius Red with a fast green dye background. Frozen fresh liver tissue was embedded in OCT, sectioned, and subsequently stained with Oil Red O.
Liver samples were collected from mice in Example 3 (see above). Total RNA was extracted from liver tissues (Qiagen RNeasy kit), cDNA libraries were constructed (Roche KAPA HyperPrep kit), sequenced on the NovaSeq6000 platform (Novogene), and a downstream analysis pipeline was performed. Differentially expressed genes (DEGs) were defined by at least one log2-fold change (2-fold in linear scale) with an FDR cutoff of 0.05. For validation, total RNA was used to prepare cDNA (BioRAD iScript™ Reverse Transcription) according to manufacturer's protocol and quantitative polymerase chain reaction (qPCR) was performed with fast SYBR Green Mix (ThermoFisher) on the QuantStudio6 System (Applied Biosystems). Protein expression levels were measured by western blot using antibodies against very low density lipoprotein receptor (VLDLR) (AF2258, 1:2000) and btubulin (CST2146, 1:1000). Membranes were developed using a horse radish peroxidase (HRP) secondary antibody (1:5000) and visualized using an enhanced chemiluminescent HRP substrate (Thermo34577).

[1] = system: 60% HFD diet-induced obesity in mice; experiment: Dose-dependent effect of TOFA in 60% HFD mouse model of diet-induced obesity (DIO); format: in vivo, C57BL/6J male mice; conditions: for body weight: oral
Method: Six-week-old C57BL/6J male mice were fed with a 60 kcal % fat diet (Research Diets A12492i) for ten weeks before introduction of either vehicle (control) or TOFA, at varying doses, for an additional two weeks. TOFA was orally administered in doses of either 12.5, 25, 62.5, or 125 mg/kg, BID. Mice weights and food intake were monitored during the treatment time course. Prior to harvest, mice underwent whole body composition analysis (EchoMRI™ 2012). Upon study termination at 12 weeks, serum and liver samples were collected. Hepatic and serum triglyceride and cholesterol levels were measured by commercially available kits (abcam65336 and abcam65390, respectively). Additional liver samples were fixed in 4% paraformaldehyde and embedded in paraffin blocks for sectioning and subsequently stained with hematoxylin and eosin (H&E).

[2] = system: CDAHFD induced NAFLD progression in mice; experiment: Dose dependent effect of TOFA in CDAHFD-induced NAFLD progression in mice; format: in vivo; conditions: 3 weeks
Method: Six-week-old C57BL/6 male mice were fed with a L-Amino Acid Diet With 60 kcal % Fat With 0.1% Methionine and No Added Choline (Research Diets A06071302i) for three weeks before introduction of either vehicle (control) or TOFA via oral gavage for an additional three weeks (FIG. 1a). Mice were gavaged orally twice daily with varying doses of TOFA (0, 25, 50, 125, or 250 mg/kg per day). Upon study termination at six weeks, serum and liver samples were collected. Serum liver damage biomarkers, alanine transaminase (ALT) and aspartate transaminase (AST), were measured by commercially available kits (abcam105134 and abcam 105135, respectively). Hepatic triglycerides were detected from liver samples from a commercially available kit (abcam65336). Liver samples were also scored for degree of hepatic steatosis based on their hematoxylin and eosin (H&E) staining.

[3] = system: CDAHFD induced late stage NAFLD/NASH in mice; experiment: Rescue effect of TOFA in CDAHFD induced late-stage NAFLD/NASH progression; format: in vivo, C57BL/6 male mice; conditions: 250 mg/kg daily, four weeks
Method: as §1

chow diet fed mice = experiment: Tolerability and toxicity of TOFA in ad libitum fed chow mice; format: in vivo, C57BL/6J male mice; conditions: oral gavage
Method: Eleven-week-old C57BL/6J male mice were fed with PicoLab Rodent Diet (Purina 5053), or chow diet, ad libitum while being treated with either control or 125 mg/kg, BID by oral gavage for three weeks. Mice weights were tracked during the entire time course. Upon study termination, serum and liver samples were collected. Serum biomarkers such as blood urea nitrogen (BUN) and creatinine were assessed by commercially available kits (abcam83362 and Cayman700460, respectively). Additionally, hepatic and serum triglyceride and cholesterol levels were measured by commercially available kits (abcam65336 and abcam65390, respectively).

[4] = liver samples of Example 3, RNA-seq
[5] = 12.5, 25, 62.5, or 125 mg/kg, BID, two weeks
[6] = TOFA 0, 25, 50, 125, or 250 mg/kg per day, oral gavage twice daily
[7] = scored per Kleiner, et al. (2005)
[8] = 125 mg/kg, BID, three weeks, chow diet

## CCCCCCCCCCCCCCOc1ccc(C(=O)O)o1 [TOFA, 5-(Tetradecyloxy)-2-furoic acid]
PPAR signaling pathway; liver samples of Example 3
  protein expression levels of VLDLR (western blot): increase in protein expression levels
PPAR signaling pathway; [4]
  GSEA: inflammatory response: negative correlation
  GSEA: oxidative phosphorylation, fatty acid metabolism, peroxisomes: significantly upregulated
  genes of the PPAR signaling pathway (2021 KEGG human database): upregulated various genes under PPAR transcriptional control
PPAR signaling pathway; liver samples of Example 3, relative to r18S mRNA
  expression of VLDLR gene (mRNA, qPCR): significant increase
PPAR signaling pathway; liver samples of Example 3, FDR cutoff 0.05, 2-fold change
  highest upregulated genes (RNA-seq of liver): canonical PPAR-alpha target genes
[1]; [5]
  food intake: remained constant
  hepatic steatosis (H&E liver sections): improvement in hepatic steatosis in a dose-dependent manner
  serum cholesterol levels (HDL and VLDL/LDL fractions): dose-dependent decrease
  serum triglyceride levels: dose-dependent decrease
[1]; all treatment groups
  overall lean mass (EchoMRI): no changes
[1]; highest dose 125 mg/kg, BID, two weeks
  body weight: weight loss
[1]; highest dose treatment group (125 mg/kg, BID)
  fat mass as a percentage of body weight (EchoMRI): decrease in fat mass as a percentage of body weight
[1]; highest dosing treatment regimens
  liver triglyceride levels: striking decreases
[1]; lower doses (12.5, 25, 62.5 mg/kg, BID), two weeks
  body weight: smaller or negligible changes in body weight
[2]; [6]
  degree of hepatic steatosis (H&E score): decreased degree of hepatic steatosis correlating to an increased dosage of TOFA
  liver triglyceride contents per gram of liver: decreased in a dose dependent manner
  serum ALT activity levels: dose dependent decrease
  serum AST activity levels: dose dependent decrease
[2]; TOFA up to 250 mg/kg per day, oral
  tolerability: well tolerated
[3]; liver sections
  cytoplasmic vacuolations by H&E staining: decreased cytoplasmic vacuolations
  fibrosis by Picrosirius Red staining: decreased fibrosis
  lipid content by Oil Red O staining: reduction in lipid content
[3]; [7]
  ballooning (histopathological score): reductions
  degree of hepatic steatosis (histopathological score): decreased degree of hepatic steatosis
  fibrosis (histopathological score): reductions
  inflammation (histopathological score): reductions
[3]; twice daily oral gavage
  liver triglyceride content: reduced
  serum ALT activity levels: significant decrease
  serum AST levels: averaged reduction
  serum triglyceride levels: no increase
Chow diet fed mice; 125 mg/kg, BID, three weeks
  tolerability: well tolerated
Chow diet fed mice; [8]
  body weight: no observed weight change
  cholesterol levels in serum: No changes
  cholesterol levels in the liver: No changes
  liver triglyceride levels: observed decrease
  serum blood urea nitrogen (BUN): no drug-induced kidney damage
  serum creatinine: no drug-induced kidney damage
  serum triglyceride levels: no significant change
Chow diet fed mice; mice
  oral bioavailability: orally bioavailable
